Reference: patent US20040229960A1, “Compositions and methods of administering tubulin binding agents for the treatment of ocular diseases” (priority 2001, published 2004)

Legend:
[1] = Biodistribution of 14C-CA4P following topical administration of a gel; assay type: in vivo, New Zealand rabbits
Protocol: (§1) ^14C-CA4P (OXiGENE Inc., Watertown, Mass.) was resuspended in 100 ul volume of saline solution and injected with a 30 G needle into the right eyes of anesthesized male New Zealand rabbits (4 months old, 1.8-2.5 kg, n=3 per sample). Three different concentrations of ^14C-CA4P were tested (1, 10, 100 mg/ml) corresponding to doses of 1, 5, and 5 uCi of applied radioactivity respectively. A blank control group was also included. Rabbits were anaesthetized at 1, 6, 24, and 48 hours for blood sampling. After blood collection, the animals were euthanized by Phenobarbital injection and the treated right eyes were removed from all test animals. Ocular tissue samples were dissected from the cornea, aqueous humor, vitreous humor, choroid, or retina, placed in 20-mi glass scintillation vials, vortexed, and incubated for 24 hrs with 500 ul digesting fluid. Plasma was separated from whole blood by centrifugation (1,800 g for 10 minutes). Both ocular tissue samples and plasma were incubated at room temperature with 16 ml of Hionic Fluor™ scintillation fluid for a period of 24 hours prior to radioactivity counting. Each sample was counted for 5 minutes in a Betamatic V counter (Bio-Tek Kontron Instruments, St Quentin en Yvelines, France). The conversion of counts per minute (“cpm”) into disintegrations per minute (“dpm”) was performed automatically by the beta-counter, using calibration curves obtained from ^14C-standards and quenching curves from the respective blank matrices spiked with ^14C-standards. The concentration of drug was determined according to nanogram equivalents of CA4P (ng-Eq/g of tissue) which was calculated from the measured dpm value, the weight of the tissue specimen, and the specific activity of the drug (0.37 mCi/mg), followed by subtraction of the corresponding background value from control eye tissue. A tissue concentration of 1 uM CA4P is equal to […] tissue.
(§2) Topical gels and solutions were developed for use as topical formulation suitable for the topical delivery of CA4P to the surface of the eye. Topical solutions (1, 3, and 10%) was directly prepared in 0.9% NaCl (Aguettant, Lyon, France) and sterilized with 0.2 um filter (pH 6.4 to 8.5, osmolarity 290 to 459 mosmol/kg H2O. Low viscosity topical gels (1,3,and 10%) were prepared in 0.5% carboxymethylcellulose (Sigma Aldrich Chimie, St. Quentin Fallavier Cedex, France) with 0.9% NaCl. The physicochemical specifications of each gel are listed in Table 5
(§3) Topical formulations were applied to the surface of right eyes at an applied dose of 5 uCi in a volume of 50 ul. Cornea was sampled instead of sclera. Samples were taken at […] and 24 hours.

[2] = Intraocular irritation following intravitreal injection; assay type: in vivo, rabbits; details: for Mean cell counts in the vitreous fluid (white blood cells): 0.2 ml intravitreal, about 48 h, <=200 acceptable
Protocol: The test article, CA4P, was evaluated for the potential to cause intraocular irritation following intravitreal injection in rabbits. Following general anesthesia, a 0.2 ml dose of CA4P was administered to the right eyes of eight rabbits. A 0.2 ml dose of 0.9% sodium chloride USP solution was administered to the left eyes of the rabbits to serve as a negative control. Four different concentrations of CA4P were tested. Each of the four concentrations (0.1 mg/ml, 1.0 mg/ml, 10 mg/ml and 100 mg/ml) were dosed to the right eyes of two rabbits. Approximately 48 hours after the treatment, the eyes were examined with a biomicroscopic slit-lamp and an indirect ophthalmoscope. The scores were recorded and the rabbits were euthanized. Immediately after euthanasia, samples of vitreous fluid were drawn and white blood cell counts were determined with a hemacytometer. Counts less than or equal to 200 cells/mm^3 were considered to be acceptable.

[3] = Biodistribution of 14C-CA4P following topical administration of a solution formulation; assay type: in vivo, New Zealand rabbits
Protocol: as §1, §2, §3

[4] = Biodistribution of 14C-CA4P following periocular injection; assay type: in vivo, New Zealand rabbits
Protocol: as §1

[5] = Primary ocular irritation, sub-Tenon's injection; assay type: in vivo, rabbits; details: for Ocular irritation vs negative control eyes: two 0.1 ml sub-Tenon's injections, 24-72 h
Protocol: The test article, CA4P, was evaluated for primary ocular irritation. Two 0.1 ml injections of the appropriate CA4P concentration (0.1, 1.0, 10 and 100 mg/ml) were injected into the sub-Tenon's space of the right eye of two rabbits. A 0.2 ml portion of buffered saline solution was injected into the sub-Tenon's space of the left eyes to serve as a negative control. Ocular reactions were evaluated at 24, 48 and 72 hours after the sample instillation. On day 3, rabbits were euthanized and eyes were removed. The specimens were fixed and embedded, and histology was performed. Histopathologic changes in the eye tissues were recorded with an emphasis placed on examination of changes in the sub-Tenon's space.

COc1ccc(/C=C\c2cc(OC)c(OC)c(OC)c2)cc1OP(=O)([O-])[O-].[Na+].[Na+] [CA4P, combretastatin A4 disodium phosphate]
Cmax ([1]; aqueous humor, 1% topical gel): 2.4 µM | Cmax ([1]; aqueous humor, 3% topical gel): 8.2 µM | Cmax ([1]; aqueous humor, 10% topical gel): 13 µM | Cmax ([1]; choroid, 1% topical gel): 2.8 µM | Cmax ([1]; choroid, 3% topical gel): 10.7 µM | Cmax ([1]; choroid, 10% topical gel): 22.5 µM | Concentration of drug delivered ([1]; cornea, retina and choroid, all three gel formulations): > 1 µM | Cmax ([1]; cornea, 1% topical gel, 50 ul): 82 µM | Cmax ([1]; cornea, 3% topical gel, 50 ul): 118 µM | Cmax ([1]; cornea, 10% topical gel, 50 ul): 292 µM | Cmax ([1]; plasma, 1% topical gel): 0.09 µM | Cmax ([1]; plasma, 3% topical gel): 0.56 µM | Cmax ([1]; plasma, 10% topical gel): 1.63 µM | Cmax ([1]; retina, 1% topical gel): 1 µM | Cmax ([1]; retina, 3% topical gel): 5.8 µM | Cmax ([1]; retina, 10% topical gel): 5.8 µM | Time of highest concentrations of drug in the eye ([1]; topical gel): within the first hour | Mean cell counts in the vitreous fluid (white blood cells) ([2]; 0.1 mg/ml): 9 cells/mm^3 | Irritation on slit-lamp and ophthalmoscope examination ([2]; 1 mg/ml intravitreal, 2 rabbits): evidence of irritation was noted in one animal | Mean cell counts in the vitreous fluid (white blood cells) ([2]; 1 mg/ml): 962 cells/mm^3 | Mean cell counts in the vitreous fluid (white blood cells) ([2]; 10 mg/ml): 10 cells/mg^3 | Irritation and inflammation, ophthalmic exams and vitreous white blood cells ([2]; 100 mg/ml intravitreal, both animals): pronounced irritation and inflammation | Mean cell counts in the vitreous fluid (white blood cells) ([2]; 100 mg/ml): 409 cells/mm^3 | Irritation (Draize Scores) ([2]; Intravitreal, <1 mg): No Irritation | Irritation and inflammation, ophthalmic exams and vitreous white blood cells ([2]; lower dose levels 0.1, 1.0 and 10 mg/ml intravitreal): no clear evidence of irritation or inflammation | Cmax ([3]; aqueous humor, 1% topical solution): 0.6 µM | Cmax ([3]; aqueous humor, 3% topical solution): 1.9 µM | Cmax ([3]; aqueous humor, 10% topical solution): 4.1 µM | Cmax ([3]; choroid, 1% topical solution): 0.87 µM | Cmax ([3]; choroid, 3% topical solution): 1.9 µM | Cmax ([3]; choroid, 10% topical solution): 15.6 µM | Cmax ([3]; cornea, 1% topical solution, 50 ul): 10 µM | Cmax ([3]; cornea, 3% topical solution, 50 ul): 34 µM | Cmax ([3]; cornea, 10% topical solution, 50 ul): 104 µM | Concentration of drug delivered ([3]; cornea, all three solution formulations): > 1 µM | Cmax ([3]; plasma, 1% topical solution): 0.07 µM | Cmax ([3]; plasma, 3% topical solution): 0.84 µM | Cmax ([3]; plasma, 10% topical solution): 1.27 µM | Cmax ([3]; retina, 1% topical solution): 0.27 µM | Cmax ([3]; retina, 3% topical solution): 0.39 µM | Cmax ([3]; retina, 10% topical solution): 4.2 µM | Time of highest concentrations of drug in the eye ([3]; topical solution): within the first hour | Cmax ([4]; choroid, 1 mg/ml periocular): 14.3 µM | Cmax ([4]; choroid, 10 mg/ml periocular): 74.5 µM | Cmax ([4]; choroid, 100 mg/ml periocular): 1040 µM | Time of highest concentrations of drug in the eye ([4]; periocular injection): within the first hour | Cmax ([4]; plasma, 1 mg/ml periocular): 0.07 µM | Cmax ([4]; plasma, 10 mg/ml periocular): 0.79 µM | Cmax ([4]; plasma, 100 mg/ml periocular): 12.3 µM | Concentration of drug delivered ([4]; retina and choroid, all administered doses, periocular): > 1 µM | Cmax ([4]; retina, 1 mg/ml periocular): 4.4 µM | Cmax ([4]; retina, 10 mg/ml periocular): 54 µM | Cmax ([4]; retina, 100 mg/ml periocular): 169 µM | Cmax ([4]; sclera, 1 mg/ml periocular): 18 µM | Cmax ([4]; sclera, 10 mg/ml periocular): 280 µM | Cmax ([4]; sclera, 100 mg/ml periocular): 3370 µM | Cmax ([4]; vitreous, 1 mg/ml periocular): 0.03 µM | Cmax ([4]; vitreous, 10 mg/ml periocular): 0.34 µM | Cmax ([4]; vitreous, 100 mg/ml periocular): 3.35 µM | Ocular irritation vs negative control eyes ([5]; 0.1 and 1.0 mg/ml): no irritation was observed | Ocular irritation vs negative control eyes ([5]; 10 and 100 mg/ml): Slight irritation was observed | Irritation (Draize Scores) ([5]; Sub-Tenon's, 0-10 mg): No Irritation
